The record followed here is US20170332691A1, “NUTRITIONAL COMPOSITIONS COMPRISING SN-1 (3) MONOACYLGLYCEROLS FOR USE IN THE TREATMENT OF MALABSORPTION OR MALDIGESTION IN INFANTS OR YOUNG CHILDREN” (NESTEC S.A., priority 2014, published 2017).

Data set [1] in a line: clinical study: sn-1(3) MAG vs fish oil (TAG) delivering EPA under XENICAL-induced lipid maldigestion. The data set is classed as in vivo, human. As for the experimental part:
This clinical study compared the efficacy of sn-1(3) MAG and fish oil (TAG) in delivering EPA in humans under lipid maldigestion conditions induced by XENICAL® (ORLISTAT). The comparison was tested in volunteers treated with XENICAL® to induce lipid maldigestion or not treated with XENICAL® (ORLISTAT). The primary objective was to assess accretion of EPA in erythrocytes over 21 days when consumed as fish oil (TAG) or sn-1(3) MAG. The secondary objectives were to assess accretion of EPA in plasma over 21 days and also to assess the pharmacokinetics of EPA after an acute dose either in the form of sn-1(3) MAG or TAG (AUC in chylomicrons over 10 hours postprandial). See FIG. 4 that describes the clinical study timeline.

A short description of data set [2]: lipid maldigestion or malabsorption rat model (XENICAL/Orlistat), EPA in red blood cells and tissues. The data set is classed as in vivo. The note with it: for level of EPA incorporated in red blood cells: rats fed with XENICAL, day 7 (FIG. 3). As for the experimental part:
The concept was tested in a lipid maldigestion or malabsorption rat model. The maldigestion or malabsorption condition was obtained using XENICAL® (ORLISTAT, tetrahydrolipstatin), a pancreatic and gastric lipases inhibitor. Rats were fed during 21 days with long-chain polyunsaturated fatty acid (LC-PUFA) supplements containing mainly eicosapentaenoic (EPA) acid. Fish oil was used as a source of triacylglycerols, and different EPA glycerides were evaluated: […] XENICAL® (ORLISTAT) was given at a level sufficient to decrease lipid absorption by 40%. A group receiving fish oil without XENICAL® (ORLISTAT) was used as a positive control. At different time intervals (D3, D7, […]), the fatty acid profiles of red blood cells and plasma lipids were determined. At the end of the experiment, the fatty acid profiles of different tissues were determined. The main objective was to follow the level of EPA in red blood cells and plasma lipids. The main comparison evaluated was the difference in EPA level between the group receiving EPA glycerides such as EPA-containing sn-1(3) MAG, in combination with XENICAL® (ORLISTAT) and the positive control group (fish oil+XENICAL® (ORLISTAT)).

Structures are written as SMILES.

On to `CC/C=C\C/C=C\C/C=C\C/C=C\C/C=C\CCCC(=O)OCC(O)CO` (stereo not shown) [Sn-1(3)-MAG-EPA, sn-1(3)-monoeicosapentaenoylglycerol], for which, in data set [1] (human subjects treated with XENICAL, vs fish oil (TAG)), the “carrier for EPA (overall conclusion of the clinical trial)” value is reported as “better carrier for EPA than fish oil (TAG)”. The “accretion of EPA in erythrocytes after 21 days (chronic effect)” value in data set [1] (humans, with XENICAL, in comparison to fish oil and XENICAL, p=0.0001 (FIG. 6)) is on record as “statistically significant”. Also, the “accretion of EPA in plasma after 21 days (chronic effect)” value in data set [1] (humans, with XENICAL, relative to fish oil and XENICAL, p=0.0003 (FIG. 7)) is on record as “statistically significant”. In addition, the “level of EPA incorporated in red blood cells” value in data set [2] (compared with fish oil + XENICAL, all P values lower than 0.05) is “statistically higher”; in data set [2] (compared with fish oil group without XENICAL) it was “even higher than the fish oil group”. Further, in data set [2] (rats with XENICAL, comparing groups A, B and C), the “incorporation of LC-PUFAs in tissue” value is given as “improved”.

With `CCCCCCCCCCC[C@@H](C[C@@H]1OC(=O)[C@H]1CCCCCC)OC(=O)[C@H](CC(C)C)NC=O` [XENICAL® (ORLISTAT), tetrahydrolipstatin, reference compound], in data set [2] (rats fed fish oil with XENICAL vs fish oil without XENICAL, day 7), the “EPA incorporation in red blood cells” value is listed as “decreases EPA incorporation in red blood cells”.
